Source: patent US12679855B2, “Inhibitors of the enzyme enolase for precision oncology” (Board of Regents, The University of Texas System, priority 2019, dated 2026)
Entries after “also recorded” stand apart in the source; their conditions may differ. Like-named read-outs stand apart in the source and are kept apart here. One block for each compound: values may come before it.

Key:
[1] = system: D423 (ENO1-deleted) glioma cells; test: Cell proliferation assay (crystal violet) in ENO1-deleted glioma cells; assay type: cell-based; details: for IC50: Glioma cell; for selectivity for ENO1-deleted cells: versus ENO1-rescued (D423 ENO1) and ENO1-intact (LN319) glioma cells
Method: Cell culture experiments. Cell culture experiments were conducted using the D423-MG cell line. 1p36 homozygous deletion in D423 includes the genes from CAMTAJ to SLC25A33; this includes ENO1. Isogenic ENO1 ectopically rescued lines were described previously (pCMV ENO1 5X) (Muller et al., 2012, which is incorporated by reference herein). An ENO1-intact cell line (LN319) was used as a control for sensitivity to Enolase inhibitors. Cells were routinely cultured in Dulbecco's modified Eagle's medium supplemented with 10% fetal bovine serum.
Cell proliferation assay. Cell Proliferation was determined by crystal violet staining, as previously described (Leonard et al., 2016 and Satani et al., 2016). The cell lines used were D423 (ENO1-deleted), D423 ENO1 (overexpressing ENO1) and LN319 (control). Glioma cells were seeded in 96-well plates and treated with varying concentrations of the inhibitors described above for 7 days. Cells were then washed with PBS, fixed with 10% formalin and stained with 0.05% crystal violet. Washed and dried plates were dye-extracted using 10% acetic acid, and absorbance was measured at 595 nm using Omegastar Plate Reader (BMG Labtech). To test the efficacy of the synthesized under hypoxic conditions, 1×10^4 cells were plated in 96-well plates, treated with VCY13, VCY15, VCY16, or VCY17 and incubated for 3 days in a hypoxia station (Don Whitley Scientific, Shipley, UK) set at 1% O2 and 5% CO2. Crystal violet staining was then performed as described above.
Additional Biological Data. Pro-drug inhibitor structures and corresponding IC50 values against ENO1-deleted cells are shown below in Table 2. The name and corresponding structures of all synthesized inhibitors are given in left and middle columns of each table. Pro-drug moieties in blue represent a second pro-drug leave group while those in red represent a first pro-drug leave group. Some inhibitors also contain an acetyl-protected hydroxamate, which is also a biologically labile moiety. ENO1-deleted (D423), ENO1-isogenically rescued (D423 ENO1), and ENO1-WT (LN319) cells were treated with either pro-drug inhibitor for 5 days at 21% O2, unless otherwise specified. […] IC50,D423 values at 21% O2 are given in the right columns of each table. Experiments conducted at 1% O2 (hypoxic) or 70% O2 (hyperoxic) conditions are noted, where appropriate.

[2] = assay type: in vitro ADME
Text: Also described herein are synthesized phosphonate pro-drugs that forgo the use of phosphoramidases or esterases to release the active pharmacophore. These moieties include the attachment of 2-(hydroxymethyl)phenol (VCY27) and 3-(hexadecyloxy)propan-1-ol (ESB7). […] Cyclosal pro-drugs have previously been described for protecting phosphate-containing antiviral nucleotides; however, it was herein discovered that its delivery efficacy can be enhanced under high O2 conditions—a previously unknown finding. Separately, the 3-(hexadecyloxy)propan-1-ol is a pro-drug that has been applied to the antiviral nucleotide Brincidofovir (CMX-001). Appending the long chain ester to HEX may facilitate the pro-drug moiety to be used for the treatment of malignant glioma.

[3] = system: D423 (ENO1-deleted) glioma cells; test: Cell proliferation assay (crystal violet) in ENO1-deleted glioma cells; assay type: cell-based
NCI-60 cell lines = test: NCI-60 screening; assay type: cell-based; details: NSC: D-813202
Text: Without wishing to be bound by any particular theory, phosphoamidates may be removed across broad cell types. Whilst the IDX184 utilized benzylamine in its pro-drug structure, this drug was specifically directed at hepatocytes, and no evidence was forthcoming that it would be a pro-drug moiety applicable for glioblastoma or other cancer drug delivery. […] For example, FLM37 has been submitted to the NCI-60 screening (NSC: D-813202). All cancer cell lines were affected at concentrations of FLM37 above 10 μM, some with as little as 1 μM. […] More generally, this means that the amine as a second leaving group is applicable as a universal second leaving group for the delivery of phosphonate/phosphate containing bioactive compounds.

Enolase = Enolase enzymatic activity assay (spectrophotometric, 2-PG to PEP, 240 nm); assay type: biochemical, human; details: serial dilutions beginning at 100 μM, native lysates
Method: (§1) To assure that benzylamine-protected HEX (FLM38) was not inhibiting Enolase directly, an in vitro spectrophotometric assay was performed to examine Enolase catalytic activity through conversion of 2-phoshpoglycerate (2-PG) to phosphoenolpyruvate (PEP). Without wishing to be bound by theory, if FLM38 were to inhibit Enolase directly, a dose-dependent decrease in absorbance at 240 nm would be observed, corresponding to decreased production of PEP. […] The possibility that the benzylamine moiety could undergo non-enzymatic hydrolysis in aqueous conditions was also examined. This study was performed by measuring the pH-dependence of compound degradation in phosphate buffered D2O via NMR over 3 days.
Enolase enzymatic activity assay. The enzyme activity assay was performed according to a previously described procedure (Muller et al., 2012, which is incorporated by reference herein). […]
In the first, the lysates were treated with the serial dilutions of FLM38 (starting at 100 μM) and the reaction initiated by adding 2.5 mM 2-PG and optical density (OD) was measured at 240 nm using Omegastar Plate reader (BMG Labtech) over the course of 3 h.
In the second experiment, the lysates were pre-incubated in 96-well plates with serial dilutions of FLM38 (starting at 100 µM) at 37° C. for 20 h. The reaction was initiated by adding 2.5 mM 2-PG and OD was measured at 240 nm. […]

[4] = pH degradation assay (31P NMR in phosphate buffered D2O); assay type: physicochemical; details: pH 3, 7, and 8.82, phosphate buffered D2O, NMR over 3 days
Method: as §1
pH degradation assay. Solutions of 50 mM phosphate buffered D2O were prepared at pH 3, 7, and 8.82. For each condition, FLM38 (5 mg, […]) was dissolved in […] of phosphate buffered D2O and placed in NMR tubes. Hydrolysis was monitored by ^31P NMR and was evidenced by the degradation of the compound peak at ~20 ppm and the emergence of the hydrolyzed product at ~18 ppm. Scans were collected every 12 h on a Bruker 500 MHz NMR.

[5] = Human plasma stability assay (31P NMR); assay type: in vitro ADME
Method: VCY17 (left) and POMHEX (right) were prepared at 1.5 mM and added to human plasma in an NMR tube with 10% D2O for signal lock. […] As expected, emergence of the second peak after 1 h is due to hydrolysis of the acetyl-protected hydroxamate; the nitroimidazole moiety remains attached (mono-ester phosphonates always show ^31P-chemical shifts <20 ppm); intact phosphoramidate mixed ester was verified by ^31P-^1H HSQC showing resonance with protons at ~5 ppm (—CH2—O—P) and 4 ppm (—CH2—NH—P). Note that VCY17 and de-acetylated VCY17 can come out as doublets: this is because two chiral centers (Phosphorus and C1) yield cis/trans diasteromers.
VCY13 (FIG. 20A) and VCY31 (FIG. 20B) are thioesterase-labile phosphonoamidates. ENO1-deleted (D423, red), ENO1-isogenically rescued (D423 ENO1, blue), and ENO1-WT (LN319, grey) cells were treated with either VCY13 or VCY31 for 5 days. […] (FIG. 20B) VCY31 is a structurally similar pro-drug that uses 2-picolylamine, rather than benzylamine, as a second pro-drug leave group. […] 4 mM VCY31 was dissolved in 80% human plasma, 20% D2O and monitored by ^31P NMR (121 MHz) for 15 hours. Intact VCY31 has a ^31P NMR shift of 33 ppm. Hydrolysis of the thioester begins to occur after 2 hours, as indicated by the emergence of a peak at ~16 ppm.
Human plasma stability assay. POMHEX and VCY17 (1.5 mM) were added to human plasma (Sigma #P9523) in an NMR tube with 10% D2O for signal lock. ^31P NMR measurements (31P CPD, 1000 transients) were conducted every 30 minutes on the first day and every 24 hours, for 4 days afterwards.

[6] = Serum containing cell culture media stability assay; assay type: in vitro ADME
Method: Serum containing Cell Culture Media stability assay. POMHEX and VCY17 (1 mM) were added to DMEM-containing 10% Fetal Bovine Serum cell culture media in an NMR tube with 10% D2O for signal lock) and incubated at 37° C. ^31P NMR measurements (^31P CPD, 1000 transients) were conducted every 24 hours, for 4 days.

[7] = nitroimidazole in VCY17, nitrofuran in VCY15; cited from earlier work
[8] = system: xenografted tumor (D423 ENO1-homozygously deleted cell line); test: Anti-tumor efficacy in xenografted tumor model; assay type: in vivo, Foxn1 nude mice
Method: Two HEX pro-drugs from different classes were tested for anti-tumor efficacy in xenografted tumor (D423 ENO1-homozygously deleted cell line) pre-clinical models (the standard immunodeficient Foxn1 nude mice). Tumor volumes (y-axis) were measured at the indicated dates (x-axis). Without treatment, tumors grow inexorably. […] This is notable because of the high esterase activity in mouse plasma, rodents are a sub-optimal model for pre-clinical efficacy evaluation of esterase-labile pro-drugs.

[9] = 120 h, ENO1-deleted (D423) cells, 5 days, 21% O2, read-out: IC50,D423
[10] = 120 h, 21% O2, 5 days where stated, read-out: IC50 against D423 (ENO1-deleted) cells
[11] = 4 mM in 80% human plasma, 20% D2O, 31P NMR

SMILES: CCCCCCCCCCCCCCCCOCCCOP(=O)(O)C1CCCN(O)C1=O (stereo not shown) [ESB7, 3-(hexadecyloxy)propyl hydrogen (1-hydroxy-2-oxopiperidin-3-yl)phosphonate]
IC50 [1, 9]: 202 nM | selectivity for ENO1-deleted cells [1]: selective killing against ENO1-deleted cells | stability under various pH conditions and in biological fluids [2]: robust stability

SMILES: CC(C)(C)C(=O)OCOP(=O)(NCc1ccccc1)C1CCCN(O)C1=O (stereo not shown) [FLM37]
IC50 [1, 10]: 244 nM | IC50 [1, 9]: 150 nM | selectivity for ENO1-deleted cells [1]: selective killing towards D423 cells; also recorded: selective for ENO1-deleted cells | IC50 ([3]; Glioma cell, 144 h, 6 days, starting concentration 1 μM, crystal violet (FIG. 7), read-out: IC50 towards D423 cells): 63 nM | concentration at which some cancer cell lines were affected (NCI-60 cell lines): ≥ 1 µM | concentrations at which all cancer cell lines were affected (NCI-60 cell lines): above 10 μM

direct inhibition of Enolase (dose-dependent decrease in absorbance at 240 nm) (Enolase): does not inhibit Enolase directly | stability to non-enzymatic hydrolysis [4]: remained intact
SMILES: O=C1C(P(=O)(O)NCc2ccccc2)CCCN1O (stereo not shown) [FLM38, N-benzyl-P-(1-hydroxy-2-oxopiperidin-3-yl)phosphonamidic acid]

stable in ex-vivo human plasma for [5]: more than 48 hours | stability in ex-vivo human plasma over the course of ([5]; 1.5 mM, human plasma with 10% D2O, 31P NMR): ≥ 24 h | IC50 [1, 9]: 12700 nM | IC50 ([1]; D423 cells, 1% O2 (hypoxic), read-out: IC50,D423 at 1% O2): 975 nM | stable in serum-containing culture media [6]: more than 48 hours
SMILES: CC(=O)ON1CCCC(P(=O)(NCc2ccccc2)OCc2cnc([N+](=O)[O-])n2C)C1=O (stereo not shown) [VCY17, 3-((benzylamino)((1-methyl-2-nitro-1H-imidazol-5-yl)methoxy)phosphoryl)-2-oxopiperidin-1-yl acetate]
difference in bioactivation from 21% to 1% O2 ([1]; taking into account HIF-1α/hypoxia-driven increase in ENO2 expression): ≤ 50 fold | potency increase under 1% O2 ([3]; 4 days, 1% O2 versus 21% O2, ENO1-deleted glioma cells): greater than 15 fold | redox potential of the nitroheterocycle [7]: −390 mV

SMILES: O=C1C([P@]2(=O)OCc3ccccc3O2)CCCN1O (stereo partly drawn) [VCY27, 1-hydroxy-3-((S)-2-oxido-4H-benzo[d][1,3,2]dioxaphosphinin-2-yl)piperidin-2-one]
IC50 [1, 10]: ~500 nM | IC50 [1, 9]: 500 nM | IC50 ([1]; D423 cells, 70% O2 (hyperoxic), read-out: IC50,D423 at 70% O2): 15 nM | selectivity for ENO1-deleted cells [1]: selective killing against ENO1-deleted cells | tumor volume response ([8]; 1 IP and 1 SC injection, at 35 mg/kg/day each): immediate abrogation of tumor growth and eventual tumor regression | stability under various pH conditions and in biological fluids [2]: robust stability

hydrolysis of the thioester begins to occur after [5, 11]: 2 h | time without full hydrolysis [5, 11]: > 15 h | IC50 [1, 10]: 59 nM | IC50 [1, 9]: 59 nM
SMILES: CC(=O)ON1CCCC(P(=O)(NCc2ccccn2)OCCSC(=O)C(C)(C)C)C1=O (stereo not shown) [VCY31, 2-oxo-3-((2-(pivaloylthio)ethoxy)((pyridin-2-ylmethyl)amino)phosphoryl) piperidin-1-yl acetate]
selectivity for ENO1-deleted cells [1]: dose-dependent selectivity for ENO1-deleted cells | tumor volume response ([8]; 90 mg/kg/day IP): suppressed tumor growth
